20 molecules from PubChem BioAssay AID248 (DTP/NCI, 2004) can be followed below.

Where “and” joins values, the source holds several entries; their conditions need not be identical. Equal values may be shown once. Inconclusive results and toxic doses are left out.

For this experiment, the system named is L1210 leukemia ip in BDF1 mice, survival T/C. The experiment in a line: NCI In Vivo Anticancer Drug Screen. Data for tumor model L1210 Leukemia (intraperitoneal) in B6D2F1 (BDF1) mice. The conditions noted are these: endpoint: mean survival time, higher = longer survival. In short, it runs like this: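 Survival endpoint. Drug-treated group vs vehicle group, expressed as T divided by C. Tumor passaged by transplantation.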

Setting [1] is: dose: 100.0 mg/kg/injection, schedule: Q01DX001 (ip), vehicle: saline.
The mark [2] stands for this setting: dose: 200.0 mg/kg/injection, schedule: Q01DX001 (ip), vehicle: saline.
[3] abbreviates: dose: 50.0 mg/kg/injection, schedule: Q01DX001 (ip), vehicle: carboxymethylcellulose (CMC).
Where [4] appears, read: dose: 100.0 mg/kg/injection, schedule: Q01DX001 (ip), vehicle: carboxymethylcellulose (CMC).
The mark [5] stands for this setting: dose: 200.0 mg/kg/injection, schedule: Q01DX001 (ip), vehicle: carboxymethylcellulose (CMC).
The mark [6] stands for this setting: dose: 400.0 mg/kg/injection, schedule: Q01DX001 (ip), vehicle: carboxymethylcellulose (CMC).
[7] abbreviates: dose: 100.0 mg/kg/injection, schedule: Q04DX003 (ip), vehicle: saline with Tween-80.
Where [8] appears, read: dose: 200.0 mg/kg/injection, schedule: Q04DX003 (ip), vehicle: saline with Tween-80.
Where [9] appears, read: dose: 100.0 mg/kg/injection, schedule: Q04DX002 (ip), vehicle: saline with Tween-80.
Where [10] appears, read: dose: 200.0 mg/kg/injection, schedule: Q04DX002 (ip), vehicle: saline with Tween-80.
[11] abbreviates: dose: 400.0 mg/kg/injection, schedule: Q04DX002 (ip), vehicle: saline with Tween-80.
The mark [12] stands for this setting: dose: 400.0 mg/kg/injection, schedule: Q01DX001 (ip), vehicle: saline.
Where [13] appears, read: dose: 100.0 mg/kg/injection, schedule: Q04DX003 (ip), vehicle: saline.
[14] abbreviates: dose: 200.0 mg/kg/injection, schedule: Q04DX003 (ip), vehicle: saline.

Regarding `CC1CCCCN1P(c1ccccc1)N1CCCCC1C` (configuration not stated), the T/C (dose: 100.0 mg/kg/injection, schedule: Q04DX002 (sc), vehicle: olive oil, sesame oil, peanut oil) was 97 % of control; the T/C (dose: 200.0 mg/kg/injection, schedule: Q04DX002 (sc), vehicle: olive oil, sesame oil, peanut oil) is 113 % of control; the T/C (dose: 400.0 mg/kg/injection, schedule: Q04DX002 (sc), vehicle: olive oil, sesame oil, peanut oil) is 107 % of control.

Turning to `CCSC(=N)N=Nc1ccc(O)cc1`, the T/C is, setting by setting: (dose: 50.0 mg/kg/injection, schedule: Q01DX001 (ip), vehicle: saline) 104 % of control; under setting [1], 98 % of control; under setting [2], 102 % of control.

For `CC(C)(C)NC=O`, the T/C is, setting by setting: (dose: 50.0 mg/kg/injection, schedule: Q01DX009 (ip), vehicle: saline) 98 % of control; (dose: 75.0 mg/kg/injection, schedule: Q01DX009 (ip), vehicle: saline) 93 % of control; (dose: 75.0 mg/kg/injection, schedule: Q04DX003 (ip), vehicle: saline) 106 % of control; (dose: 150.0 mg/kg/injection, schedule: Q04DX003 (ip), vehicle: saline) 96 % of control.

As to `CCOc1ccccc1C1N2CCN(CC2)C(c2ccccc2OCC)N2CCN1CC2` (configuration not stated), the T/C reads like this: under setting [3], 100 % of control; under setting [4], 100 % of control; under setting [5], 100 % of control; under setting [6], 105 % of control.

As to `CCCCCCNC(=O)Oc1cccc(NC(=O)CC)c1`, the T/C is 104 % of control under setting [7]; 88 % of control under setting [8]; 102 % of control (dose: 400.0 mg/kg/injection, schedule: Q04DX003 (ip), vehicle: saline with Tween-80).

Take `O=C(Nc1ccsn1)c1ccc(Cl)cc1Cl`: the T/C runs as follows: (dose: 50.0 mg/kg/injection, schedule: Q01DX009 (ip), vehicle: saline with Tween-80) 111 % of control; (dose: 100.0 mg/kg/injection, schedule: Q01DX009 (ip), vehicle: saline with Tween-80) 91 % of control; (dose: 200.0 mg/kg/injection, schedule: Q01DX009 (ip), vehicle: saline with Tween-80) 91 % of control.

`CC/C(C)=C\CC/C(C)=C/COc1cccc(CC)c1`: the T/C runs as follows: under setting [9], 100 % of control; under setting [10], 94 % of control; under setting [11], 94 % of control.

Turning to `CCCCCCOC(=O)Nc1ccc(S(=O)(=O)NC2CCCCC2)cc1`, the T/C is, setting by setting: under setting [1], 94 % of control; under setting [2], 90 % of control; under setting [12], 95 % of control.

In the case of `CC(=O)n1c2c(n(C(C)=O)c1=O)CCCC2`, the T/C is 102 % of control (dose: 100.0 mg/kg/injection, schedule: Q01DX001 (ip), vehicle: saline with Tween-80); 98 % of control (dose: 200.0 mg/kg/injection, schedule: Q01DX001 (ip), vehicle: saline with Tween-80); 102 % of control (dose: 400.0 mg/kg/injection, schedule: Q01DX001 (ip), vehicle: saline with Tween-80).

In the case of `CC(=O)C1=CC2(OC3CCC(O)(C(=O)CO)C(C)O3)C(=O)c3c(cc4cccc(O)c4c3O)CC2C(O)C1O` (configuration not stated), the T/C was 114 % of control (dose: 3.12 mg/kg/injection, schedule: Q01DX001 (ip), vehicle: carboxymethylcellulose (CMC)); 100 % of control (dose: 6.25 mg/kg/injection, schedule: Q01DX001 (ip), vehicle: carboxymethylcellulose (CMC)); 104 % of control (dose: 12.5 mg/kg/injection, schedule: Q01DX001 (ip), vehicle: carboxymethylcellulose (CMC)); 106 % of control (dose: 25.0 mg/kg/injection, schedule: Q01DX001 (ip), vehicle: carboxymethylcellulose (CMC)); 115 % of control under setting [3]; 102 % of control (dose: 50.0 mg/kg/injection, schedule: Q01DX015 (ip), vehicle: carboxymethylcellulose (CMC)). Also, the T/C is 111 % of control under setting [4]; 102 % of control (dose: 100.0 mg/kg/injection, schedule: Q01DX015 (ip), vehicle: carboxymethylcellulose (CMC)); 100 % of control under setting [5]; 93 % of control (dose: 200.0 mg/kg/injection, schedule: Q01DX015 (ip), vehicle: carboxymethylcellulose (CMC)); 97 % of control under setting [6]; 93 % of control (dose: 400.0 mg/kg/injection, schedule: Q01DX015 (ip), vehicle: carboxymethylcellulose (CMC)).

On to `Clc1cc(CBr)c(Cl)c(Cl)c1CBr`, for which the T/C is 94 % of control (dose: 6.25 mg/kg/injection, schedule: Q01DX009 (ip), vehicle: saline sonified); 97 % of control (dose: 6.25 mg/kg/injection, schedule: Q04DX003 (ip), vehicle: Klucel (hydroxypropylcellulose) (HPC)); 94 % of control (dose: 12.5 mg/kg/injection, schedule: Q01DX009 (ip), vehicle: saline sonified); 91 % of control (dose: 12.5 mg/kg/injection, schedule: Q04DX003 (ip), vehicle: Klucel (hydroxypropylcellulose) (HPC)); 91 % of control (dose: 25.0 mg/kg/injection, schedule: Q01DX009 (ip), vehicle: saline sonified); 98 % of control (dose: 25.0 mg/kg/injection, schedule: Q04DX003 (ip), vehicle: Klucel (hydroxypropylcellulose) (HPC)).

On to `Cn1ncc2c(Cl)ncnc21`, for which the T/C is 113 % of control (dose: 100.0 mg/kg/injection, schedule: Q01DX001 (ip), vehicle: other); 94 % of control (dose: 200.0 mg/kg/injection, schedule: Q01DX001 (ip), vehicle: other); 102 % of control (dose: 400.0 mg/kg/injection, schedule: Q01DX001 (ip), vehicle: other).

As for `COC(=O)C1=NNCC1C(=O)N1Cc2cc3ccccc3nc2C1` (configuration not stated), the T/C runs as follows: (dose: 10.0 mg/kg/injection, schedule: Q04DX003 (ip), vehicle: saline) 103 % of control; (dose: 20.0 mg/kg/injection, schedule: Q04DX003 (ip), vehicle: saline) 99 % of control; (dose: 40.0 mg/kg/injection, schedule: Q04DX003 (ip), vehicle: saline) 103 % of control; (dose: 80.0 mg/kg/injection, schedule: Q04DX003 (ip), vehicle: saline) 92 % of control; (dose: 160.0 mg/kg/injection, schedule: Q04DX003 (ip), vehicle: saline) 97 % of control.

Turning to `COc1ccc(-c2ccc([N+](=O)[O-])cc2[N+](=O)[O-])cc1`, the T/C by setting is: under setting [4], 105 % of control; under setting [5], 110 % of control; under setting [6], 105 % of control.

Turning to `Cc1cc([NH-])c([NH-])cc1C.[Cl][Pt+2][Cl]`, the T/C reads like this: (dose: 18.0 mg/kg/injection, schedule: Q01DX009 (ip), vehicle: water) 150 % of control; (dose: 25.0 mg/kg/injection, schedule: Q01DX009 (ip), vehicle: other) 119 % of control; (dose: 50.0 mg/kg/injection, schedule: Q04DX003 (ip), vehicle: other) 104 % of control; (dose: 50.0 mg/kg/injection, schedule: Q04DX003 (ip), vehicle: saline) 112 % of control and 119 % of control; (dose: 100.0 mg/kg/injection, schedule: Q04DX003 (ip), vehicle: other) 119 % of control; under setting [13], 107 % of control and 113 % of control. Further, the T/C under setting [14] was 93 % of control.

On to `COc1ccc(OC(=O)N2C=Cc3ccccc3C2C#N)cc1` (configuration not stated), for which the T/C by setting is: under setting [1], 93 % of control; under setting [13], 105 % of control; under setting [2], 97 % of control; under setting [14], 97 % of control; under setting [12], 91 % of control; (dose: 400.0 mg/kg/injection, schedule: Q04DX003 (ip), vehicle: saline) 97 % of control.

Take `CCOc1ccc2nc(C)sc2c1`: the T/C by setting is: (dose: 100.0 mg/kg/injection, schedule: Q04DX003 (ip), vehicle: acetone) 97 % of control; (dose: 200.0 mg/kg/injection, schedule: Q04DX003 (ip), vehicle: acetone) 95 % of control; (dose: 400.0 mg/kg/injection, schedule: Q04DX003 (ip), vehicle: acetone) 93 % of control.

Regarding `CCOC(=O)C1C2/C=C/CCCCC21` (configuration not stated), the T/C was 105 % of control under setting [9], 112 % of control under setting [10] and 98 % of control under setting [11].

Regarding `CCS(=O)(=O)c1ccc(NC(=O)Oc2cc(C)ccc2C(C)C)cc1`, the T/C was 91 % of control under setting [4], 96 % of control under setting [5] and 94 % of control under setting [6].

For the molecule `N#CCCOc1ccc(Cl)cc1`, the T/C by setting is: under setting [7], 96 % of control; under setting [8], 99 % of control.
